# Counter-ions that a name gives are not always drawn.
# Molecular target: MASP-2 CCP2-SP (Homo sapiens (Human), UniProt O00187)
# Experiment: MASP-2 co-crystallization, X-ray crystallography and structure analysis (H-bonds, van der Waals contacts);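 for Ligand-pharmacophore element distance, pharmacophore element C2: distance from averaged pharmacophore element to bound ligand; missing value means element absent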;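 for Ligand-pharmacophore element distance, pharmacophore element C3: distance from averaged pharmacophore element to bound ligand; missing value means element absent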;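 for Ligand-pharmacophore element distance, pharmacophore element C4: distance from averaged pharmacophore element to bound ligand; missing value means element absent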;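 for Ligand-pharmacophore element distance, pharmacophore element C5: distance from averaged pharmacophore element to bound ligand; missing value means element absent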
# Set-up: van der Waals contact distance, MASP-2 HIS 483 atom CD2 / van der Waals contact distance, MASP-2 HIS 483 atom NE2 / van der Waals contact distance, SER 654 C to compound atom / van der Waals contact distance, SER 654 O to compound atom / van der Waals contact distance, TRP 655 C to compound atom / van der Waals contact distance, MASP-2 GLY 528 atom CA / van der Waals contact distance TRP 655 atom CZ3 / van der Waals contact distance TRP 655 atom N / van der Waals contact distance TRP 655 atom CE3 / van der Waals contact distance GLY 656 atom C / van der Waals contact distance GLY 656 atom CA / van der Waals contact distance GLY 656 atom O / van der Waals contact distance, MASP-2 TYR 607 atom CD1 / van der Waals contact distance, MASP-2 PRO 606 atom O / d(C3,CA1) / d(CA1,N1)2 / d(H4,O1) / d(H4,O2) / d(O1,O2) / d(CA1,O2) / d(CA6,O1) / d(CA6,O2) / d(CA1,C5) / d(O2,H3) / d(N2,C2) / d(CA5,N2) / d(N2,C4) / d(N2,C6) / d(N2,CA3) / d(N2,O3) / d(O4,H2): unit not given beside the values
# Settings: for H-bond distance to MASP-2 ASP 627 atom OD2: ASP 627 OD2; for H-bond distance to MASP-2 GLY 656 atom N: GLY 656 N; for H-bond distance to MASP-2 SER 654 atom O: SER 654 O; for H-bond distance to MASP-2 SER 657 atom O: SER 657 O; for Ligand-pharmacophore element distance, pharmacophore element C2 / Ligand-pharmacophore element distance, pharmacophore element C3 / Ligand-pharmacophore element distance, pharmacophore element C4 / Ligand-pharmacophore element distance, pharmacophore element C5 / Ligand-pharmacophore element distance, pharmacophore element C6 / Ligand-pharmacophore element distance, pharmacophore element C7 / Ligand-pharmacophore element distance, pharmacophore element CA1 / Ligand-pharmacophore element distance, pharmacophore element CA2 / Ligand-pharmacophore element distance, pharmacophore element CA3 / Ligand-pharmacophore element distance, pharmacophore element CA4 / Ligand-pharmacophore element distance, pharmacophore element CA5 / Ligand-pharmacophore element distance, pharmacophore element CA6: Table A4-1
# How it was run: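 Soaked crystals of recombinant CCP2-SP (E. coli) yield the structures, phased by molecular replacement on 1Q3X pieces. Hydrophobic or nonbonded contacts can also cover atom pairs that are potential hydrogen bonds.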
# [1] = Table A5-1 pharmacophore: distance between elements, S2/S1 region
# [2] = Table A5-2 pharmacophore distance, S3/S4 region
# [3] = Table A7-1, between pharmacophore elements of the bound compound
# [4] = Table A7-2, between pharmacophore elements of the bound compound
# [5] = Table A8-6, nearest protein atom in cell to the left
# MASP-2 CCP2-SP, sequence (O00187 445-686): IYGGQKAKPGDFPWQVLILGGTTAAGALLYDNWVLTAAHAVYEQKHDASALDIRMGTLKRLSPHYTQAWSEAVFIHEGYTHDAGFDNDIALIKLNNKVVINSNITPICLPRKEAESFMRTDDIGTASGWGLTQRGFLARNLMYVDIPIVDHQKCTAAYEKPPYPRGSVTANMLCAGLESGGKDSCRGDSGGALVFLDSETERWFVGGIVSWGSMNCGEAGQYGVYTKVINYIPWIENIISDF
# MASP-2 CCP2-SP, sequence (O00187 364-432 partner): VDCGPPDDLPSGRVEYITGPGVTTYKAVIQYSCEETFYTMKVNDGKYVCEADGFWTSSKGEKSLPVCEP
compound,measurement,setting,value
C[C@H](NC(=O)[C@@H](CCc1ccccc1)NCc1ccc(N2CCOCC2)cc1)C(=O)NCc1ccc(C(=N)N)cc1 [compound 1149],H-bond distance to MASP-2 ASP 627 atom OD2,Table A1 (H-Bonds),3.09
same,H-bond distance to MASP-2 CYS 660 atom SG,"Table A1 (H-Bonds), CYS 660 SG",3.16
same,H-bond distance to MASP-2 GLY 656 atom N,Table A1 (H-Bonds),3.24
same,H-bond distance to MASP-2 SER 654 atom O,Table A1 (H-Bonds),2.7
same,H-bond distance to MASP-2 SER 657 atom O,Table A1 (H-Bonds),2.75
same,H-bond distance to MASP-2 SER 657 atom OG,"Table A1 (H-Bonds), SER 657 OG",3.19
same,"van der Waals contact distance, MASP-2 ASP 526 atom C",Table A2-1,3.29
same,"van der Waals contact distance, MASP-2 ASP 526 atom CA",Table A2-1,3.87
same,"van der Waals contact distance, MASP-2 HIS 483 atom CD2",Table A2-1,3.81
same,"van der Waals contact distance, MASP-2 GLY 528 atom N",Table A2-2,3.4
same,"van der Waals contact distance, MASP-2 PHE 529 atom CE1",Table A2-3,3.68
same,"van der Waals contact distance, SER 654 C to compound atom",Table A2-11,3.68
same,"Ligand-pharmacophore element distance, pharmacophore element C2",,0
same,"Ligand-pharmacophore element distance, pharmacophore element C3",,0
same,"Ligand-pharmacophore element distance, pharmacophore element C4",,3.8
same,"Ligand-pharmacophore element distance, pharmacophore element C5",,0
same,"Ligand-pharmacophore element distance, pharmacophore element C6",,0
same,"Ligand-pharmacophore element distance, pharmacophore element C7",,0
same,"Ligand-pharmacophore element distance, pharmacophore element CA1",,0.35
same,"Ligand-pharmacophore element distance, pharmacophore element CA2",,0
same,"Ligand-pharmacophore element distance, pharmacophore element CA3",,0
same,"Ligand-pharmacophore element distance, pharmacophore element CA4",,1.47
same,"Ligand-pharmacophore element distance, pharmacophore element CA5",,0
same,"Ligand-pharmacophore element distance, pharmacophore element CA6",,4.96
same,"d(CA1,N1)",[1],3.57
same,"d(CA1,O1)",[1],5.15
same,"d(CA1,O2)",[1],9.42
same,"d(CA6,O1)",[1],7.04
same,"d(CA6,O2)",[1],8.45
same,"d(H4,O1)",[1],5.59
same,"d(H4,O2)",[1],8.32
same,"d(O1,O2)",[1],8.70
same,"d(N2,C4)",[2],7.94
same,"d(O2,H3)",[2],5.29
same,"d(O2,N2)",[2],4.42
same,"a(CA1, O1, O2)",Table A6-1 pharmacophore angle,147.27
same,"a(O1, CA6, O2)",Table A6-1 pharmacophore angle,131.55
same,"a(O1, O2, H4)",Table A6-1 pharmacophore angle,105.44
same,"A(N1, CA1, O1) a)","Table A6-1 pharmacophore angle, all compounds with protonatable center N1 except Methyl-amino-pyridine",168.87
same,"a(O1, O2, H3)",Table A6-2 pharmacophore angle,54.88
same,"a(O1, O2, N2)",Table A6-2 pharmacophore angle,62.73
same,"a(O2, N2, C4)",Table A6-2 pharmacophore angle,154.82
same,"a(O2, N2, C4) 2",Table A6-2 pharmacophore angle,49.80
same,"Pharmacophore torsion angle a(CA6, O1, H4, O2)",[3],55.30
same,"Pharmacophore torsion angle a(H4, O1, O2, H3)",[3],105.58
same,"Pharmacophore torsion angle a(H4, O1, O2, N2)",[3],125.02
same,"Pharmacophore torsion angle a(N1, CA1, O2, H4)",[3],−109.82
same,"Pharmacophore torsion angle a(O1, H4, O2, CA1)",[3],−48.11
same,"Pharmacophore torsion angle a(O1, O2, N2, CA4)",[4],155.91
same,Pharmacophore protein distance to MET_658 (first MET_658 column),"Table A8-6, 6th residue column, nearest protein atom in cell to the left",2.55
same,Pharmacophore protein distance to MET_658 (second MET_658 column),"Table A8-6, 9th residue column, nearest protein atom in cell to the left",3.25
same,Pharmacophore protein distance to GLY_528,[5],3.92
same,Pharmacophore protein distance to PHE_529,[5],2.93
same,Pharmacophore protein distance to PRO_608,[5],4.39
same,Pharmacophore protein distance to SER_611,[5],2.96
same,Pharmacophore protein distance to TRP_655,"Table A8-6, pharmacophore elements C6, CA3, O3, H1, nearest protein atom in cell to the left",3.27
"Cc1nc(N)ccc1CNC(=O)[C@H](C)NC(=O)[C@H]1C[C@@H](c2ccccc2)CCN1 [compound 1253, (2R,4S)—N—((S)-1-(((6-Amino-2-methylpyridin-3-yl)methyl)amino)-1-oxopropan-2-yl)-4-phenylpiperidine-2-carboxamide Dihydrochloride]",H-bond distance to MASP-2 ASP 627 atom OD2,Table A1 (H-Bonds),3.33
same,H-bond distance to MASP-2 GLY 656 atom N,Table A1 (H-Bonds),3.23
same,H-bond distance to MASP-2 GLY 656 atom O,"Table A1 (H-Bonds), GLY 656 O",2.83
same,H-bond distance to MASP-2 SER 628 atom O,"Table A1 (H-Bonds), SER 628 O",3.12
same,H-bond distance to MASP-2 SER 654 atom O,Table A1 (H-Bonds),2.99
same,H-bond distance to MASP-2 SER 657 atom O,Table A1 (H-Bonds),2.85
same,"van der Waals contact distance, MASP-2 HIS 483 atom CD2",Table A2-1,3.74
same,"van der Waals contact distance, MASP-2 HIS 483 atom NE2",Table A2-1,3.66
same,"van der Waals contact distance, MASP-2 PHE 529 atom CE2",Table A2-3,3.77
same,"van der Waals contact distance, MASP-2 amino acid atom to compound atom","Table A2-5: TYR 607 (CE1, CE2, OH), PRO 608 (CD, CG), SER 611 (CA)",3.73
same,"van der Waals contact distance, MASP-2 amino acid atom to compound atom","Table A2-7: SER 628 (CB, O, OG)",3.58
same,"van der Waals contact distance, VAL 653 CG1 to compound atom",Table A2-11,3.31
same,"van der Waals contact distance, TRP 655 CA to compound atom",Table A2-12,3.41
same,van der Waals contact distance TRP 655 atom CE3,"Table A2-13, MASP-2 TRP 655 CE3, compound atom in line below",3.61
same,van der Waals contact distance TRP 655 atom CZ3,"Table A2-13, MASP-2 TRP 655 CZ3",3.71
same,"Ligand-pharmacophore element distance, pharmacophore element C2",,0.28
same,"Ligand-pharmacophore element distance, pharmacophore element C3",,0.07
same,"Ligand-pharmacophore element distance, pharmacophore element C4",,0
same,"Ligand-pharmacophore element distance, pharmacophore element C5",,0
same,"Ligand-pharmacophore element distance, pharmacophore element C6",,0
same,"Ligand-pharmacophore element distance, pharmacophore element C7",,0
same,"Ligand-pharmacophore element distance, pharmacophore element CA1",,0.59
same,"Ligand-pharmacophore element distance, pharmacophore element CA2",,0.23
same,"Ligand-pharmacophore element distance, pharmacophore element CA3",,0
same,"Ligand-pharmacophore element distance, pharmacophore element CA4",,0
same,"Ligand-pharmacophore element distance, pharmacophore element CA5",,0
same,"Ligand-pharmacophore element distance, pharmacophore element CA6",,0
same,"d(C3,CA1)",[1],2.87
same,"d(CA1,N1)2",[1],1.37
same,"d(CA1,O1)",[1],4.36
same,"d(CA1,O2)",[1],3.83
same,"d(H4,O1)",[1],4.38
same,"d(H4,O2)",[1],3.69
same,"d(O1,O2)",[1],3.39
same,"d(N2,C2)",[2],1.46
same,"d(N2,CA2)",[2],5.74
same,"d(O2,H3)",[2],2.04
same,"d(O2,N2)",[2],2.70
same,"a(C3, CA1, O1)",Table A6-1 pharmacophore angle,149.95
same,"a(CA1, O1, O2)",Table A6-1 pharmacophore angle,105.84
same,"a(O1, O2, H4)",Table A6-1 pharmacophore angle,131.28
same,"a(N1, CA1, O1) b)","Table A6-1 pharmacophore angle, Methyl-amino-pyridine compounds",174.19
same,"a(O1, O2, H3)",Table A6-2 pharmacophore angle,134.57
same,"a(O1, O2, N2)",Table A6-2 pharmacophore angle,140.99
same,"a(O2, N2, C2)",Table A6-2 pharmacophore angle,130.77
same,"a(O2, N2, CA2)",Table A6-2 pharmacophore angle,155.92
same,"Pharmacophore torsion angle a(C3, CA1, O1, H4)",[3],26.20
same,"Pharmacophore torsion angle a(H4, O1, O2, H3)",[3],115.64
same,"Pharmacophore torsion angle a(H4, O1, O2, N2)",[3],140.24
same,"Pharmacophore torsion angle a(N1, CA1, O1, H4)",[3],3.75
same,"Pharmacophore torsion angle a(O1, H4, O2, CA1)",[3],−82.09
same,"Pharmacophore torsion angle a(O1, O2, N2, C2)",[3],120.69
same,"Pharmacophore torsion angle a(O1, O2, N2, CA2)",[4],126.24

# — patent publication US12195427B2, “MASP-2 inhibitors and methods of use” (priority 2018, dated 2025)
